Assay results from patent US8772449B2, “Cell-penetrating peptides” (Toray Industries, Inc., priority 2009, dated 2014).
Like-named read-outs stand apart in the source and are kept apart here. Ends that are not written are not given here.

Experiments:
[1] = Intestinal administration of insulin with peptide (ileal loop) to rats; assay type: in vivo; conditions: Example 8, insulin 50 IU/kg with 0.5 mM peptide, male SD rat, FIG. 10
Method: A silicone tube was […] cm distant from the ileocecal junction toward the ileum, and a feeding needle was inserted at a position about 10 cm upward therefrom. Further, sutures were passed through an area of 6 cm between these. From the feeding needle, 20 ml of phosphate buffered saline (PBS) at pH 7.4 prewarmed to 37° C. was fed at a flow rate of 5 ml/min. to allow discharging of the contents, and the silicone tube was plugged, followed by administering 1 ml of PBS prewarmed to 37° C. from the feeding needle and keeping it retained for 30 minutes. After the administration, the feeding needle was quickly plugged and the intestinal tract was returned into the abdominal cavity, followed by closing the site of incision with a clip and allowing the rat to keep still. […] The rat during the experiment was fixed on its back on a hot plate kept at 37° C. by a hot-water circulating pump to regulate the body temperature. […] Also for rats to which the same quantity of the insulin solution alone was subcutaneously administered, the blood collection and the measurement were carried out in the same manner.

[2] = Intranasal administration of interferon β with peptide to rats (plasma interferon β level); conditions: Example 6, interferon β 0.18×10^6 IU/kg alone or with 0.5 mM peptide, FIG. 7
nasal cavity = assay: Evaluation of damage to nasal cavity (LDH leakage into washing solution); conditions: Example 9; mixed solution of peptide and insulin, intranasal, washing 15 minutes later, FIG. 11
[3] = Intranasal administration of exendin-4 with peptide to rats (plasma exendin-4 level); conditions: Example 7, exendin-4 0.25 mg/kg alone or with 0.5 mM peptide, FIG. 8
[4] = Intranasal administration of insulin with peptide to rats (blood glucose, plasma insulin, bioavailability, AUC); conditions: Example 4, insulin 1 IU/kg alone or mixed with 0.5 mM peptide (L-body), male SD rat, FIG. 5
HeLa cells [5] = assay: Evaluation of peptide permeability into cells (fluorescein-labeled peptide incorporated into HeLa cells); assay type: cell-based
Method: In DMEM medium supplemented with 10% FBS, 0.2 ml of HeLa cells were plated on a 96-well glass bottom plate, and the cells were cultured at 37° C. for 48 to 72 hours to allow the cells to adhere to the bottom surface. After 3 times of washing with 200 μl of PBS, 50 μl of DMEM medium containing each of the peptides of SEQ ID NOs:1 to 6 labeled with fluorescein at the amino terminus (contract synthesis by Sigma-Genosys) at a final concentration of 5 μM and FBS at a final concentration of 10% was added to each well. The plate was incubated in a CO2 incubator for 3 hours and then washed 3 times with DMEM medium supplemented with 10% FBS, followed by addition of 50 μl of a lysis solution (10 mM Tris-HCl, 5 mM EDTA, 100 mM NaCl, 1% SDS, 100 μg/ml proteinase K) and 1 hour of incubation at room temperature, to decompose the cells and the peptides incorporated into the cells. The whole lysis solution was recovered, and the amount of fluorescein incorporated into the cells was measured using a fluorescence intensity measuring apparatus (HORIBA FLUOROMAX-3) at an excitation wavelength of 494 nm and a fluorescence wavelength of 512 nm.
(§1) Further, the amount of fluorescein incorporated into the cells was measured by the same method as in Example 1.

HeLa cells [6] = assay: Evaluation of promotion of insulin transfer into cells (rhodamine-labeled insulin incorporated, fluorescence intensity of lysate); assay type: cell-based; conditions: for incorporation of rhodamine-labeled insulin into the cells (in words): Example 2, rhodamine-labeled human insulin 100 μg/ml alone or with peptide, 3 hours, FIG. 2
Method: In DMEM medium supplemented with 10% FBS, 0.2 ml of HeLa cells were plated on a 96-well glass bottom plate, and the cells were cultured at 37° C. for 48 to 72 hours to allow the cells to adhere to the bottom surface.
(§2) The rhodamine-labeled insulin was prepared by the following method. […] To the resulting solution, 4 mg of NHS-rhodamine (Pierce) dissolved in 0.5 ml of DMSO was added, and the reaction was allowed to proceed at room temperature overnight.
as §1

HeLa cells [7] = assay: Localization of rhodamine-labeled insulin in HeLa cells by confocal laser microscope; assay type: cell-based; conditions: Example 2, peptide added together with rhodamine-labeled insulin, FIG. 12
Method: as §2

HeLa cells [8] = assay: Evaluation of promotion of transfer of polystyrene beads into cells; assay type: cell-based; conditions: Example 3, beads alone or with peptide 1 μM, 3 hours, FIG. 3
Method: In DMEM medium supplemented with 10% FBS, 0.2 ml of HeLa cells were plated on a 96-well glass bottom plate, and the cells were cultured at 37° C. for 48 to 72 hours to allow the cells to adhere to the bottom surface. After 3 times of washing with 200 μl of PBS, 50 μl of DMEM medium containing each of the peptides of SEQ ID NOs:1 to 6 labeled with fluorescein at the amino terminus (contract synthesis by Sigma-Genosys) at a final concentration of 1 μM, fluorescent polystyrene beads (Fluorospheres Carboxylated Microbeads, 0.1 μm; manufactured by Molecular probes, Inc.) at a final concentration of 1 μl/well and 10% FBS was added to each well. The plate was incubated in a CO2 incubator for 3 hours and then washed 3 times with DMEM medium supplemented with 10% FBS, followed by addition of 50 μl of a lysis solution (10 mM Tris-HCl, 5 mM EDTA, 100 mM NaCl, 1% SDS, 100 μg/ml proteinase K) and 1 hour of incubation at room temperature, to decompose the cells. The whole lysis solution was recovered, and the amount of fluorescent polystyrene beads incorporated into the cells was measured using a fluorescence intensity measuring apparatus at an excitation wavelength of 580 nm and a fluorescence wavelength of 605 nm.

[9] = rat, in vivo, 0.25 mg/kg

Which “blood insulin level after intestinal administration, compared to insulin alone” value [1] does the source give for KWFRIQMQIKKWRNRR [SEQ ID NO:4] here?
The value was “evident increase”.

And the “plasma interferon β level after intranasal administration” value [2]?
The value was “transfer of interferon β into the blood from immediately after the administration”.

Which “blood insulin level after intestinal administration, compared to insulin alone” value [1] does the source give for “RWFKIQMQIRRWKNKK [SEQ ID NO:1, R W F K I Q M Q I R R W K N K K]” here?
Its value is “evident increase”.

What about the “release of LDH from the nasal cavity, compared to 5% (w/v) sodium taurodeoxycholate” value (nasal cavity) of the same substance?
Its value is “significantly lower”.

What about the “plasma exendin-4 level after intranasal administration” value [3] of the same substance?
The value was “transfer of exendin-4 into the blood from immediately after the administration”.

What about the “plasma interferon β level after intranasal administration” value [2] of the same substance?
The value was “transfer of interferon β into the blood from immediately after the administration”.

What about the “blood insulin level after intranasal administration” value [4] of the same substance?
The value was “transfer of insulin into the blood was observed from immediately after the administration”.

Which results are given for “SEQ ID NO:6: Random peptide, cell membrane non-permeable; sequence not printed (EYDLSTAGGAAAC; Synthetic peptide random peptide)”?
incorporation of fluorescein-labeled peptide into the cells (in words) (HeLa cells [5]; Example 1, fluorescein-labeled peptide 5 μM, 3 hours, FIG. 1): hardly incorporated into the cells; fluorescein incorporated into the cells, of the fluorescein added (HeLa cells [5]; Example 12, fluorescein-labeled peptides, incubation 5 hours, FIG. 15): about 0.2%; incorporation of rhodamine-labeled insulin into the cells (in words) (HeLa cells [6]): almost no incorporation; rhodamine-labeled insulin incorporated into the cells, of the amount added (HeLa cells [6]; Example 12, fluorescein-labeled peptides added together with rhodamine-labeled insulin, incubation 5 hours, FIG. 16): about 0.2%; permeation of rhodamine-labeled insulin into the cells, confocal laser microscope (HeLa cells [7]): did not allow permeation; incorporation of fluorescent polystyrene beads into the cells (in words) (HeLa cells [8]): almost no incorporation

For exendin-4, which “plasma exendin-4 level after intranasal administration” value [9] is on record?
The value was “almost no increase”.

For “rhodamine-labeled insulin: human insulin reacted with NHS-rhodamine (Pierce); fluorescent probe, added alone”, which “incorporation of rhodamine-labeled insulin into the cells (in words)” value (HeLa cells [6]) is on record?
The value was “almost no incorporation”.
